Results: ChEMBL document CHEMBL1150762, “Homology modeling and site-directed mutagenesis to identify selective inhibitors of endothelin-converting enzyme-2” (J Med Chem, 2008)

Key:
[1] = target: Neprilysin (Homo sapiens, UniProt P08473); assay: Inhibition of Neprilysin
[2] = target: T1, Endothelin-converting enzyme 2 (Homo sapiens) (UniProt P0DPD6); assay: Reduction of recombinant ECE2 activity measured by McaBk2 fluorescent substrate hydrolysis at 10 uM; design: scale not given: the % may be the effect or the level left
T1 sequence (whole entry): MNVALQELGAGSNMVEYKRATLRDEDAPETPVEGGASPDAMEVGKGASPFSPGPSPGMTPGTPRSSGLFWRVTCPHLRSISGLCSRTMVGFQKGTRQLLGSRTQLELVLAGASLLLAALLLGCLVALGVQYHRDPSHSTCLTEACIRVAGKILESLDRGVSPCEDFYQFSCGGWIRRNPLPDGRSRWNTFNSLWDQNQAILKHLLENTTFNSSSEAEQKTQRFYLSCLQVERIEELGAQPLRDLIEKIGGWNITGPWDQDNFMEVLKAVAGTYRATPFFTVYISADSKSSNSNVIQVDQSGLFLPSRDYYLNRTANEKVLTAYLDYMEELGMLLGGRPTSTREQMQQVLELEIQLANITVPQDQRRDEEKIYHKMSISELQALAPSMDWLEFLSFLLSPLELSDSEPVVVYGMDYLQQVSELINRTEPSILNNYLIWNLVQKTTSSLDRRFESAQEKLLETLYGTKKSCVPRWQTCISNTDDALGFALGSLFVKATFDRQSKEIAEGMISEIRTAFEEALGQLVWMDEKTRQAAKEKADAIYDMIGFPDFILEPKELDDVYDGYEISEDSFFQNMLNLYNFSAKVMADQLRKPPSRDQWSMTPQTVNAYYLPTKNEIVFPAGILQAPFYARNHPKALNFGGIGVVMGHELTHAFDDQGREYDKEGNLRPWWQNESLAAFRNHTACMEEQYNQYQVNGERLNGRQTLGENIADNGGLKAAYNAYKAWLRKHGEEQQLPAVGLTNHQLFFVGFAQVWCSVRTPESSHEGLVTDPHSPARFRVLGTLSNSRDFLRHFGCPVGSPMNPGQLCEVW

[3] = target: T2, Endothelin-converting enzyme 2 (Homo sapiens, UniProt P0DPD6); assay: Reduction of recombinant ECE2 activity measured by McaBk2 fluorescent substrate hydrolysis
T2 sequence (P0DPD6 whole entry): T1 sequence (whole entry)

Chain of Neprilysin (P08473 whole entry): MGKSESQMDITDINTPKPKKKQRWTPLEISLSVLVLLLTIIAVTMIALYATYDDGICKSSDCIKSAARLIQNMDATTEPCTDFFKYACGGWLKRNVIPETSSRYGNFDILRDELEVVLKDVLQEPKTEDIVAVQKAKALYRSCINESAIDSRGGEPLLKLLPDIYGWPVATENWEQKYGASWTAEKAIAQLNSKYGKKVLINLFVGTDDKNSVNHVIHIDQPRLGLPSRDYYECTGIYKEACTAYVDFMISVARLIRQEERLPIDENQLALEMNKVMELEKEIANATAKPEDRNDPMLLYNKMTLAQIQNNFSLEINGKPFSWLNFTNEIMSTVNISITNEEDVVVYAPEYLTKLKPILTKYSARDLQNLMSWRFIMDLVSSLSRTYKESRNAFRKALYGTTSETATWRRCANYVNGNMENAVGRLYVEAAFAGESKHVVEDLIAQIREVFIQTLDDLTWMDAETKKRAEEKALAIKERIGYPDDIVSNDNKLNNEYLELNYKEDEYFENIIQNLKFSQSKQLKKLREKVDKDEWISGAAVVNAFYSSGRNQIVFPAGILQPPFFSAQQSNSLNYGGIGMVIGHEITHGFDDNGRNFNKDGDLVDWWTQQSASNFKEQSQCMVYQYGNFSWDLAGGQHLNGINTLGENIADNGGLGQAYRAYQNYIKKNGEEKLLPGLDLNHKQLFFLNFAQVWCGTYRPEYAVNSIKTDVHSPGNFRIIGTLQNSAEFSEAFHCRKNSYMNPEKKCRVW

O=C(Cc1ccc2nccnc2c1)N1CCCC1
IC50 [1]: > 50 µM | Activity [2]: > 70% | IC50 [3]: 5.83 µM

COc1cccc(/C=C/c2ccc3cccc(O)c3n2)c1
IC50 [3]: 35.7 µM

Oc1ccccc1/C=C/c1ccc2ccccc2n1
IC50 [1]: > 100 µM | Activity [2]: > 70% | IC50 [3]: 6.42 µM

COc1cccc(/C=C/c2ccc3cccc(O)c3n2)c1O
IC50 [3]: 32.9 µM

Oc1ccccc1/C=C\c1ccc2ccccc2n1
IC50 [3]: 4.63 µM
